Measured values reported in PubChem BioAssay AID1259407 (Chemical Carcinogenesis Research Information System (CCRIS), 2018).
The source made the active and inactive calls. The rule behind the calls is not given here.

Tested on: CCRIS mutagenicity, Ames/micronucleus/aberration tests
Test: CCRIS mutagenicity studies
[1] = Test System: AMES SALMONELLA TYPHIMURIUM, Strain/Indicator: TA98, Metabolic Activation: NONE, Method: PREINCUBATION
[2] = Test System: AMES SALMONELLA TYPHIMURIUM, Strain/Indicator: TA100, Metabolic Activation: NONE, Method: PREINCUBATION
[3] = Test System: AMES SALMONELLA TYPHIMURIUM, Strain/Indicator: TA1535, Metabolic Activation: NONE, Method: PREINCUBATION
[4] = Test System: AMES SALMONELLA TYPHIMURIUM, Strain/Indicator: TA100, Metabolic Activation: RAT, LIVER, S-9, AROCLOR 1254, Method: PREINCUBATION
[5] = Test System: AMES SALMONELLA TYPHIMURIUM, Strain/Indicator: TA98, Metabolic Activation: RAT, LIVER, S-9, AROCLOR 1254, Method: PREINCUBATION

## NCc1ccc(CN)cc1
End Point: IN VITRO CHROMOSOMAL ABERRATIONS, Test System: CHL CELLS, Metabolic Activation: NONE
  mutagenic call: inactive; negative
End Point: IN VITRO CHROMOSOMAL ABERRATIONS, Test System: CHL CELLS, Metabolic Activation: RAT, LIVER, S-9, SODIUM PHENOBARBITAL AND 5,6-BENZOFLAVONE
  mutagenic call: inactive; negative
[1]
  mutagenic call: inactive; negative
Test System: AMES SALMONELLA TYPHIMURIUM, Strain/Indicator: TA98, Metabolic Activation: RAT, LIVER, S-9, PHENOBARBITAL AND BETA-NAPHTHOFLAVONE, Method: PREINCUBATION
  mutagenic call: inactive; negative
[2]
  mutagenic call: inactive; negative
Test System: AMES SALMONELLA TYPHIMURIUM, Strain/Indicator: TA100, Metabolic Activation: RAT, LIVER, S-9, PHENOBARBITAL AND BETA-NAPHTHOFLAVONE, Method: PREINCUBATION
  mutagenic call: inactive; negative
Test System: AMES SALMONELLA TYPHIMURIUM, Strain/Indicator: TA102, Metabolic Activation: NONE, Method: PREINCUBATION
  mutagenic call: inactive; negative
Test System: AMES SALMONELLA TYPHIMURIUM, Strain/Indicator: TA102, Metabolic Activation: RAT, LIVER, S-9, PHENOBARBITAL AND BETA-NAPHTHOFLAVONE, Method: PREINCUBATION
  mutagenic call: inactive; negative
[3]
  mutagenic call: inactive; negative
Test System: AMES SALMONELLA TYPHIMURIUM, Strain/Indicator: TA1535, Metabolic Activation: RAT, LIVER, S-9, PHENOBARBITAL AND BETA-NAPHTHOFLAVONE, Method: PREINCUBATION
  mutagenic call: inactive; negative
Test System: AMES SALMONELLA TYPHIMURIUM, Strain/Indicator: TA1537, Metabolic Activation: NONE, Method: PREINCUBATION
  mutagenic call: inactive; negative
Test System: AMES SALMONELLA TYPHIMURIUM, Strain/Indicator: TA1537, Metabolic Activation: RAT, LIVER, S-9, PHENOBARBITAL AND BETA-NAPHTHOFLAVONE, Method: PREINCUBATION
  mutagenic call: inactive; negative
Test System: E. COLI, Strain/Indicator: WP2UVRA/PKM101, Metabolic Activation: NONE, Method: PREINCUBATION
  mutagenic call: inactive; negative
Test System: E. COLI, Strain/Indicator: WP2UVRA/PKM101, Metabolic Activation: RAT, LIVER, S-9, PHENOBARBITAL AND BETA-NAPHTHOFLAVONE, Method: PREINCUBATION
  mutagenic call: inactive; negative
Test System: E. COLI, Strain/Indicator: WP2UVRA/PKM101, Metabolic Activation: RAT, LIVER, S-9, SODIUM PHENOBARBITAL AND 5,6-BENZOFLAVONE, Method: PREINCUBATION
  mutagenic call: inactive; negative
Test System: E. COLI, Strain/Indicator: WP2UVRA, Metabolic Activation: NONE, Method: PREINCUBATION
  mutagenic call: inactive; negative
Test System: E. COLI, Strain/Indicator: WP2UVRA, Metabolic Activation: RAT, LIVER, S-9, PHENOBARBITAL AND BETA-NAPHTHOFLAVONE, Method: PREINCUBATION
  mutagenic call: inactive; negative

## CCCCN(CCCC)N=O
Test System: AMES SALMONELLA TYPHIMURIUM, Strain/Indicator: TA100, Metabolic Activation: MOUSE, INTACT UROTHELIAL CELLS, Method: FLUCTUATION TEST
  mutagenic call: active; positive
Test System: AMES SALMONELLA TYPHIMURIUM, Strain/Indicator: TA100, Metabolic Activation: RAT, INTACT UROTHELIAL CELLS, Method: FLUCTUATION TEST
  mutagenic call: active; positive
[4]
  mutagenic call: active; positive
Test System: AMES SALMONELLA TYPHIMURIUM, Strain/Indicator: TA100, Metabolic Activation: RAT, LIVER, S-9, KC500 OR PHENOBARBITAL, Method: LIQUID SUSPENSION
  mutagenic call: active; positive
Test System: AMES SALMONELLA TYPHIMURIUM, Strain/Indicator: TA104, Metabolic Activation: RAT, LIVER, S-9, AROCLOR 1254, Method: PREINCUBATION
  mutagenic call: active; positive
Test System: AMES SALMONELLA TYPHIMURIUM, Strain/Indicator: TA1530, Metabolic Activation: RAT, LIVER, S-9, Method: STANDARD PLATE
  mutagenic call: active; positive
[3]
  mutagenic call: inactive; negative
Test System: AMES SALMONELLA TYPHIMURIUM, Strain/Indicator: TA1535, Metabolic Activation: RAT, LIVER, HEPATOCYTES, Method: PREINCUBATION
  mutagenic call: inactive; negative
Test System: AMES SALMONELLA TYPHIMURIUM, Strain/Indicator: TA1535, Metabolic Activation: RAT, LIVER, MICROSOMES, KANECHLOR 500, Method: PREINCUBATION
  mutagenic call: active; positive
Test System: AMES SALMONELLA TYPHIMURIUM, Strain/Indicator: TA1535, Metabolic Activation: RAT, LIVER, S-9, AROCLOR 1254, Method: PREINCUBATION
  mutagenic call: active; positive
Test System: AMES SALMONELLA TYPHIMURIUM, Strain/Indicator: TA1535, Metabolic Activation: RAT, LIVER, S-9, AROCLOR, Method: PREINCUBATION
  mutagenic call: active; positive
Test System: AMES SALMONELLA TYPHIMURIUM, Strain/Indicator: TA1535, Metabolic Activation: RAT, LIVER, S-9, SODIUM PHENOBARBITONE, Method: PREINCUBATION
  mutagenic call: active; positive
Test System: AMES SALMONELLA TYPHIMURIUM, Strain/Indicator: TA1535, Metabolic Activation: RAT, LIVER, S-9, Method: PREINCUBATION
  mutagenic call: inactive; negative
Test System: AMES SALMONELLA TYPHIMURIUM, Strain/Indicator: TA1535ER, Metabolic Activation: NONE, Method: STANDARD PLATE
  mutagenic call: inactive; negative
Test System: AMES SALMONELLA TYPHIMURIUM, Strain/Indicator: TA1975, Metabolic Activation: RAT, LIVER, S-9, AROCLOR 1254, Method: PREINCUBATION
  mutagenic call: active; positive
Test System: AMES SALMONELLA TYPHIMURIUM, Strain/Indicator: YG7104ER, Metabolic Activation: NONE, Method: STANDARD PLATE
  mutagenic call: active; positive
Test System: AMES SALMONELLA TYPHIMURIUM, Strain/Indicator: YG7108ER, Metabolic Activation: NONE, Method: STANDARD PLATE
  mutagenic call: active; positive
Test System: CHINESE HAMSTER V-79, Strain/Indicator: V-79/8-AZAGUANINE, Metabolic Activation: RAT, LIVER, S-15, PHENOBARBITAL, Method: STANDARD PLATE
  mutagenic call: active; positive
Test System: CHINESE HAMSTER V-79, Strain/Indicator: V-79/OUABAIN, Metabolic Activation: HAMSTER, HEPATOCYTES, Method: CELL-MEDIATED
  mutagenic call: active; positive
Test System: E. COLI, Strain/Indicator: WP2 (HCR), Metabolic Activation: RAT, LIVER, MICROSOMES, KANECHLOR 500, Method: PREINCUBATION
  mutagenic call: active; positive
Test System: E. COLI, Strain/Indicator: WP2 (HCR-), Metabolic Activation: RAT, LIVER, MICROSOMES, PHENOBARBITAL
  mutagenic call: active; positive

## Nc1cc2c3c(ccc2c2ccccc12)[C@H](O)[C@@H](O)C=C3
[1]
  mutagenic call: inactive; negative
[5]
  mutagenic call: inactive; negative
[2]
  mutagenic call: active; positive
[4]
  mutagenic call: active; positive
Test System: CHINESE HAMSTER OVARY, Strain/Indicator: CHO-K1-BH4 (HGPRT)/6-THIOGUANINE, Metabolic Activation: NONE, Method: STANDARD PLATE
  mutagenic call: inactive; negative
Test System: CHINESE HAMSTER OVARY, Strain/Indicator: CHO-K1-BH4 (HGPRT)/6-THIOGUANINE, Metabolic Activation: RAT, LIVER, S-9, AROCLOR 1254, Method: STANDARD PLATE
  mutagenic call: active; positive
Test System: CHINESE HAMSTER OVARY, Strain/Indicator: CHO-UV5 (HGPRT)/6-THIOGUANINE, Metabolic Activation: NONE, Method: STANDARD PLATE
  mutagenic call: inactive; negative
Test System: CHINESE HAMSTER OVARY, Strain/Indicator: CHO-UV5 (HGPRT)/6-THIOGUANINE, Metabolic Activation: RAT, LIVER, S-9, AROCLOR 1254, Method: STANDARD PLATE
  mutagenic call: active; positive

## N[C@@H](CCC(=O)N[C@@H](CSc1ccc([N+](=O)[O-])cc1[N+](=O)[O-])C(=O)NCC(=O)O)C(=O)O
Test System: AMES SALMONELLA TYPHIMURIUM, Strain/Indicator: TA100(NR), Metabolic Activation: NONE, Method: PREINCUBATION
  mutagenic call: inactive; negative
Test System: AMES SALMONELLA TYPHIMURIUM, Strain/Indicator: TA100/GSH-, Metabolic Activation: NONE, Method: PREINCUBATION
  mutagenic call: active; positive
[2]
  mutagenic call: inactive; negative

## Cn1c(NS(=O)(=O)O)nc2c3nc(CO)cnc3ccc21
[1]
  mutagenic call: inactive; negative
[5]
  mutagenic call: inactive; negative

## C=C(C)C(=O)OCCOC1C=CC2C3CCC(C3)C12 (stereo not given)
Test System: CHINESE HAMSTER OVARY, Strain/Indicator: CHO-K1-BH4 (HGPRT), Metabolic Activation: NONE, Method: MONOLAYER
  mutagenic call: inactive; negative
Test System: CHINESE HAMSTER OVARY, Strain/Indicator: CHO-K1-BH4 (HGPRT), Metabolic Activation: NONE, Method: SUSPENSION/PLATE
  mutagenic call: active; positive

## CC(=O)[C@@]1(C)O[C@]12C(=O)C=Cc1ccccc12
[2]
  mutagenic call: inactive; negative

## C=CCN(CC=C)C1c2ccccc2-c2ccccc2C1N1C2c3ccccc3-c3ccccc3C21 (stereo not given)
Test System: AMES SALMONELLA TYPHIMURIUM, Strain/Indicator: TA100, Metabolic Activation: NONE, Method: STANDARD PLATE
  mutagenic call: inactive; negative
